Earlier results in US11083748B2 (priority 2003, dated 2021).

How the values were obtained:
patients = settings: human, in vivo
[1] = in vivo, iv

Which “patients with drug-induced elevations of liver transaminases (mild and transient)” value (patients) does the source give for `O=C(O)C(S)C(S)C(=O)O` (stereo not shown) [Succimer, dimercaptosuccinic acid] here?
The value was “up to 10%”.

With `O=C(O)CN(CCN(CC(=O)O)CC(=O)O)CC(=O)O` [EDTA, ethylenediamine tetraacetic acid] as the compound, how does the “fraction of the drug remaining one hour following administration” value [1] read?
Its value is “one-half”.

And the half-life [1]?
The half-life was 20 to 60 min.

Which solubility in water does the source give for `CC(C)(S)[C@@H](N)C(=O)O` [Penicillamine, beta,beta-dimethylcysteine] here?
Its solubility in water is “freely soluble”.
